Data taken from PubChem BioAssay AID652161 (Sanford-Burnham Center for Chemical Genomics, 2013).
Calls of active or inactive are those of the source.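 Rule for the calls: active = IC50 of 25 µM or lower, counted as toxic to worms; inactive = the rest.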

Test system: C. elegans VP596, manual health composite score, 20-22 h
Test: whole-worm cytotoxicity of SKN-1 inhibitor candidates – whole organism, strain VP596, composite health score, cytotoxicity control for SKN-1 inhibitor project, SAR follow-up (AID 652161)

SMILES | IC50
Cc1oc(-c2ccc(-c3ccccc3)cc2)nc1CN(C)C1CCOC1 (stereo not drawn) | > 64 µM (inactive)
Cc1ccc(N=C/C(C(=O)C(F)(F)F)=C(\O)c2ccco2)cc1Cl | 27.2 µM (inactive)
Clc1ccc(Nc2nc(-c3cccs3)cs2)nc1 | 12.4 µM
c1ccc2sc(SCc3ccc(-c4nnco4)cc3)nc2c1 | 14.5 µM
CCOc1cc(CNC2CCCC2)cc(Cl)c1OCc1ccccc1 | > 64 µM (inactive)
CCOc1cc(CNCCSc2nnnn2C)cc(Br)c1OCc1ccc(F)cc1 | 16 µM
CC(C)c1ccc(C(=O)Nc2ccc(CN3CCOCC3)cc2)cc1 | 14.7 µM
O=C(Nc1nc(-c2ccc(Cl)s2)cs1)c1ccco1 | 16.1 µM
O=C(/C=C/Nc1ccc(F)cc1F)c1ccco1 | 24.1 µM
COc1cc(CNC(C)(C)CO)cc(Br)c1OCc1ccc(Cl)cc1 | 56.3 µM (inactive)
CSc1cccc(NC(=O)c2cccc3cccnc23)c1 | 47 µM (inactive)
O=C(Nc1nc(-c2ccc(Cl)s2)cs1)c1ccccc1 | > 64 µM (inactive)
Brc1ccc(-c2nnc(-c3ccco3)o2)cc1 | 12.9 µM
Clc1ccc(-c2nnc(-c3ccccc3)o2)c(Cl)c1 | 27.9 µM (inactive)
Brc1ccc(-c2nc(-c3ccccc3)no2)o1 | 11.9 µM
O=C(/C=C/Nc1ccc(F)cc1F)c1cccs1 | 21.4 µM
Clc1ccc(-c2nnc(-c3ccco3)o2)cc1 | 16.9 µM
Fc1ccc(-c2csc(Nc3ccccn3)n2)cc1 | 7.02 µM
Brc1ccc(CSc2nnc(-c3cccnc3)o2)cc1 | 25.2 µM (inactive)
Fc1ccc(COc2ccc(-c3nnco3)cc2)cc1 | 34.9 µM (inactive)

SMILES | IC50
O=C(Nc1nc(-c2ccc(Cl)s2)cs1)c1cccs1 | > 64 µM (inactive)
O=C(/C=C/c1ccc(Br)cc1)c1ccc(NC2=NCCCS2)cc1 | 20.1 µM
Cc1ccc(CSc2nnc(-c3ccco3)o2)cc1 | 19.1 µM
O=C(/C=C/Nc1ccc(F)c(Cl)c1)c1ccco1 | 18.8 µM
Fc1ccc(-c2csc(-c3ccncc3)n2)cc1 | 10.6 µM
Cc1ccc(Nc2nc(-c3cccs3)cs2)nc1 | 27.3 µM (inactive)
CCOC(=O)c1c(-c2ccc(-c3ccccc3)cc2)csc1NC(=O)CNCCN(C)C | > 64 µM (inactive)
COc1cc(CNC(C)c2ccccc2)cc(Br)c1OCc1ccc(F)cc1 (stereo not drawn) | > 64 µM (inactive)
CCOc1cc(CNC2CCCC2)cc(Cl)c1OCc1ccc(F)cc1 | > 64 µM (inactive)
c1ccc(SCc2cc(-c3ccccc3)no2)cc1 | 11.5 µM
Brc1ccc(CSc2nnc(-c3ccco3)o2)cc1 | 8.76 µM
CCOc1ccc(-c2nc(-c3cccnc3)no2)cc1 | 8.88 µM
O=C(/C=C/Nc1ccccc1F)c1cccs1 | 35.2 µM (inactive)
c1ccc2oc(SCc3nc4ccccc4s3)nc2c1 | 13.9 µM
O=C(/C=C/c1ccccc1)Nc1ccc(CN2CCOCC2)cc1 | > 64 µM (inactive)
O=C(/C=C/Nc1ccc(Br)cc1F)c1ccco1 | 14.8 µM
COc1cc(CNC2CCCC2)cc(Cl)c1OCc1ccc(F)cc1 | 46.9 µM (inactive)
c1ccc(-c2csc(-c3ccncc3)n2)cc1 | 23.9 µM
Cc1ccc2nc(-c3ccc(NC(=S)NC4CC(C)(C)NC(C)(C)C4)cc3)sc2c1 | 62 µM (inactive)
O=C(/C=C/Nc1ccc(F)c(F)c1)c1cccs1 | > 64 µM (inactive)

SMILES | IC50
O=C(Nc1nc2c(ccc3ccccc32)s1)c1ccco1 | 20.3 µM
Clc1ccccc1-c1nc(-c2ccncc2)no1 | 15.3 µM
Cc1ccc(-c2noc(-c3cccs3)n2)cc1 | 10.6 µM
CCc1ccc(-c2nc(-c3ccncc3)no2)cc1 | 10.6 µM
COc1ccc(C(=O)Nc2nc(-c3cccs3)cs2)cc1 | > 64 µM (inactive)
O=C(Nc1nccs1)c1ccc2ccccc2n1 | 16 µM
O=C(/C=C/c1cccs1)c1ccc(Br)cc1 | 11.6 µM
c1ccc(Nc2nc(-c3cccs3)cs2)nc1 | 14.9 µM
O=C(Nc1nc(-c2ccccc2)cs1)c1cccs1 | 15 µM
O=C(Nc1ccc(CN2CCOCC2)cc1)c1cc2ccccc2o1 | 35.3 µM (inactive)
Fc1ccc(COc2ccc(-c3nnco3)cc2)c(Cl)c1 | 8.11 µM
c1ccc(-c2csc(Nc3ccccn3)n2)cc1 | 6.56 µM
c1ccc(-c2nc(-c3ccncc3)no2)cc1 | > 64 µM (inactive)
Cc1ccccc1-c1noc(-c2cccs2)n1 | 7.83 µM
CCOC(=O)Nc1nc(-c2ccc(F)cc2F)cs1 | 22.9 µM
Cc1nc2ccccc2cc1OCc1ccc(F)cc1 | 8.59 µM
Cc1cc(OCc2cccc(Cl)c2)c(C)cc1CN1CCOCC1 | 21 µM
Clc1ccccc1-c1nnc(-c2ccccc2Cl)o1 | 20.9 µM
